These results are taken from ChEMBL document CHEMBL4665793, “Screening and Reverse-Engineering of Estrogen Receptor Ligands as Potent Pan-Filovirus Inhibitors” (J Med Chem, 2020).

Activity calls are given as the source filed them. The calls are words filed in the database; no cut-off is given here.

The CC50 is the concentration at which the toxic effect on the cells reaches its halfway point. A low value points to harm at low concentration. By IC50 is commonly meant the concentration that gives 50% inhibition.

In data set [1] the test system is Vesicular stomatitis virus. Description: Antiviral activity against vesicular stomatitis virus assessed as inhibition of viral entry. The format is functional, organism-based.
A further data set concerns Influenza A virus. Nature of the data set: Antiviral activity against Influenza A virus H5N1 assessed as inhibition of viral entry. Format: functional, organism-based.
The subject of data set [2] is Ebolavirus. Nature of the data set: Antiviral activity against Ebolavirus (pBDBV) assessed as inhibition of viral entry. Format: functional, organism-based.
Another data set concerns Mengla dianlovirus. Nature of the data set: Antiviral activity against Mengla-virus assessed as inhibition of viral entry. The format is functional.
Data set [3] relates to Ebolavirus. Description: Antiviral activity against Ebolavirus Tai Forest assessed as inhibition of viral entry. Format: functional, organism-based.
The subject of data set [4] is Ebolavirus. Nature of the data set: Antiviral activity against Ebolavirus (pRESTV) assessed as inhibition of viral entry. Format: functional, organism-based.
The target in data set [5] is T1, Estrogen receptor (Homo sapiens) (UniProt P03372).
T1 sequence (whole entry): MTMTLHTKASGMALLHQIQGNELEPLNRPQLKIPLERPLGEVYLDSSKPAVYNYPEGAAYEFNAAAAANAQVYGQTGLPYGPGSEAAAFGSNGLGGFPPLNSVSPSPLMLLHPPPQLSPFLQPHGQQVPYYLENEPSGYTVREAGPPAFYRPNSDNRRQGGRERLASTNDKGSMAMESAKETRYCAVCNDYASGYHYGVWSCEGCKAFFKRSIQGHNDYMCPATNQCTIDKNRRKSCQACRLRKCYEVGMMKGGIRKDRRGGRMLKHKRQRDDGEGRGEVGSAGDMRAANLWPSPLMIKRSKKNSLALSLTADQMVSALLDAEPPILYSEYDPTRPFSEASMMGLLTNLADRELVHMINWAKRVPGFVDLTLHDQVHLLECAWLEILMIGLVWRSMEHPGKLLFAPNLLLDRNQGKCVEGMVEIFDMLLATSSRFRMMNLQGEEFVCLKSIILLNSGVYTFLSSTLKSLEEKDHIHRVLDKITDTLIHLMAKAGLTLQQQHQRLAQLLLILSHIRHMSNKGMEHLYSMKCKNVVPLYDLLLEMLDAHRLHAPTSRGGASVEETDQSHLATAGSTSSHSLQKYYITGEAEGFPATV
Nature of the data set: Agonist activity at ER-alpha in human MCF-7:WS8 cells transfected with an estrogen response element incubated for 18 hrs by luciferase reporter gene assay. Format: cell-based. Conditions: MCF7. For orientation: A reporter such as luciferase makes a cellular process visible.

The target in data set [6] is T1, Estrogen receptor (Homo sapiens). Nature of the data set: Antagonist activity at ER-alpha in human MCF-7:WS8 cells transfected with an estrogen response element assessed as suppression of estrogen-induced response incubated for 18 hrs by luciferase reporter gene assay. The settings on record: MCF7. Format: cell-based.
The next data set relates to A549. The format is cell-based. Conditions: human.
Data set [7] deals with Marburgvirus. The format is functional, organism-based. Conditions: Orthomarburgvirus, Angola, A549, 24 h.
Data set [8] is described as follows: in vitro. Conditions: human, A549 cells.
A short description of data set [9]: in vitro. Conditions: human, A549 cells. This is another data set of the same source.
Another data set relates to Zaire ebolavirus. Nature of the data set: microbe, parasite or virus in culture. Conditions: Mayinga, Zaire, 1976, A549, 48 h.
In data set [10] the test system is Marburgvirus. Description: microbe, parasite or virus in culture. Conditions: Orthomarburgvirus, Musoke, A549, 48 h.

Take `CC/C(=C(/c1ccc(NC(=O)C2CCN(C)C2)cc1)c1ccc(OCCN2CCCC2)cc1)c1ccccc1` (centres undefined): the inhibition result (in data set [1]; in the data set on Influenza A virus; in [6]) was “inactive” in each case. For the same compound, the inhibition result with Ebolavirus [2], with Mengla dianlovirus, in the data set with Ebolavirus [3] and in the data set with Ebolavirus [4] was “Active” in each case. Besides, in [5], the outcome was inactive. In the data set on A549, this compound came in with a CC50 of 11800 nM. Further, the IC50 is 960 nM in the data set on Marburgvirus [7], 20 nM in the data set with Zaire ebolavirus and 720 nM in the data set on Marburgvirus [10]. In addition, the selectivity ratio in the data set “in vitro [8]” was 30; in the data set “in vitro [9]”, 590.
